Starred links: 1 amine or outer side, 2 acyl side, 3 side chain; linkers in the order of their positions; H or OH if unused. Non-standard residues stand in square brackets, D forms with d. Residues, ends and D or L forms follow the SMILES beside them. Groups on a side chain read outwards from the residue. *: point of attachment. C20 diacid = O=C(O)CCCCCCCCCCCCCCCCCCC(=O)*; C18 diacid = O=C(O)CCCCCCCCCCCCCCCCC(=O)*; C17 diacid = O=C(O)CCCCCCCCCCCCCCCC(=O)*; γGlu = O=C(O)[C@H](CCC(=O)[*:2])N[*:1]; NMeY = CN[C@@H](Cc1ccc(O)cc1)C(=O)O; AEEA = NCCOCCOCC(=O)O; Aib = CC(C)(N)C(=O)O
Experiment: physchem
Description: Solubility of the GIPR peptides may be determined by dissolution in a phosphate buffer followed by quantitation using liquid chromatography, for example, High Performance Liquid Chromatogry (HPLC). An illustrative method is provided. For determination of the solubility of the GIPr agonist peptides, 3 mg of peptides are weighted out in a small glass vial. 100 μL of 200 mM Phosphate buffer pH 7.4 are added and the vial is sonicated/votexed as necessary for a maximum of 1 min. […] If insoluble material is observed in the tube the addition of 100 μL of buffer and mixing is repeated until complete dissolution.
3 mg of peptides are weighted out in a small glass vial. 100 uL of 200 mM Phosphate buffer pH 7.4 are added and the vial is sonicated/votexed as necessary for a maximum of 1 min. […] If insoluble material is observed in the tube the addition of 100 uL of buffer and mixing is repeated until complete dissolution.

[1] = pH 7.4, aqueous buffer, pH 7.4 Phosphate Buffer - Solubility, 200 mM Phosphate buffer pH 7.4
[2] = pH 7.4, solubility in phosphate buffer at pH 7.4, 200 mM phosphate buffer pH 7.4

SMILES | solubility (pH 7.4, aqueous buffer) [mg/mL] | solubility [1] [mg/mL] | solubility [2] [mg/mL] | solubility (pH 7.4) [mg/mL]
CC[C@H](C)[C@H](NC(=O)[C@H](Cc1ccccc1)NC(=O)[C@@H](NC(=O)CNC(=O)[C@H](CCC(=O)O)NC(=O)C(C)(C)NC(=O)[C@H](Cc1ccc(O)cc1)NC)[C@@H](C)O)C(=O)N[C@@H](CO)C(=O)N[C@@H](CC(=O)O)C(=O)N[C@@H](Cc1ccc(O)cc1)C(=O)N[C@@H](CO)C(=O)N[C@H](C(=O)NC(C)(C)C(=O)N[C@@H](CCCCNC(=O)CNC(=O)CNC(=O)CNC(=O)CNC(=O)CNC(=O)CC[C@H](NC(=O)CC[C@H](NC(=O)CCCCCCCCCCCCCCCC(=O)O)C(=O)O)C(=O)O)C(=O)N[C@@H](CC(=O)O)C(=O)N[C@@H](CCCNC(=N)N)C(=O)NC(C)(C)C(=O)N[C@@H](C)C(=O)N[C@@H](CCC(N)=O)C(=O)NC(C)(C)C(=O)N[C@@H](CC(N)=O)C(=O)N[C@@H](Cc1ccccc1)C(=O)N[C@H](C(=O)N[C@@H](CC(N)=O)C(=O)N[C@@H](Cc1c[nH]c2ccccc12)C(=O)N[C@@H](CC(C)C)C(=O)N[C@@H](CC(C)C)C(=O)N[C@@H](C)C(=O)N[C@@H](CCC(N)=O)C(=O)N[C@@H](CCCNC(=N)N)C(N)=O)C(C)C)[C@@H](C)CC [Compound 264] | < 6 |  |  | 
CC[C@H](C)[C@H](NC(=O)[C@H](Cc1ccccc1)NC(=O)[C@@H](NC(=O)CNC(=O)[C@H](CCC(=O)O)NC(=O)C(C)(C)NC(=O)[C@H](Cc1ccc(O)cc1)NC)[C@@H](C)O)C(=O)N[C@@H](CO)C(=O)N[C@@H](CC(=O)O)C(=O)N[C@@H](Cc1ccc(O)cc1)C(=O)N[C@@H](CO)C(=O)N[C@H](C(=O)NC(C)(C)C(=O)N[C@@H](CC(C)C)C(=O)N[C@@H](CC(=O)O)C(=O)N[C@@H](CCCNC(=N)N)C(=O)NC(C)(C)C(=O)N[C@@H](CCCCNC(=O)COCCOCCNC(=O)COCCOCCNC(=O)CC[C@H](NC(=O)CC[C@H](NC(=O)CCCCCCCCCCCCCCCCC(=O)O)C(=O)O)C(=O)O)C(=O)N[C@@H](C)C(=O)NC(C)(C)C(=O)N[C@@H](CC(N)=O)C(=O)N[C@@H](Cc1ccccc1)C(=O)N[C@H](C(=O)N[C@@H](CC(N)=O)C(=O)N[C@@H](Cc1c[nH]c2ccccc12)C(=O)N[C@@H](CC(C)C)C(=O)N[C@@H](CC(C)C)C(=O)N[C@@H](C)C(=O)N[C@@H](CCC(N)=O)C(=O)N[C@@H](CO)C(=O)N1CCC[C@H]1C(=O)N[C@@H](CO)C(=O)N[C@@H](CO)C(=O)NCC(=O)N[C@@H](C)C(=O)N1CCC[C@H]1C(=O)N1CCC[C@H]1C(=O)N1CCC[C@H]1C(=O)N[C@@H](CO)C(N)=O)C(C)C)[C@@H](C)CC [Compound 109] (H-[NMeY][Aib]EGTFISDYSI[Aib]LDR[Aib]K([AEEA-AEEA-γGlu-γGlu-C18 diacid])A[Aib]NFVNWLLAQSPSSGAPPPS-NH2) |  | ≥ 60 | ≥ 15 | 
CC[C@H](C)[C@H](NC(=O)[C@H](Cc1ccccc1)NC(=O)[C@@H](NC(=O)CNC(=O)[C@H](CCC(=O)O)NC(=O)C(C)(C)NC(=O)[C@@H](N)Cc1ccc(O)cc1)[C@@H](C)O)C(=O)N[C@@H](CO)C(=O)N[C@@H](CC(=O)O)C(=O)N[C@@H](Cc1ccc(O)cc1)C(=O)N[C@@H](CO)C(=O)N[C@H](C(=O)NC(C)(C)C(=O)N[C@@H](CC(C)C)C(=O)N[C@@H](CC(=O)O)C(=O)N[C@@H](CCCCN)C(=O)N[C@@H](C)C(=O)N[C@@H](CCCCNC(=O)COCCOCCNC(=O)COCCOCCNC(=O)CC[C@H](NC(=O)CCCCCCCCCCCCCCCCC(=O)O)C(=O)O)C(=O)N[C@@H](CCC(N)=O)C(=O)N[C@@H](C)C(=O)N[C@@H](CC(=O)O)C(=O)N[C@@H](Cc1ccccc1)C(=O)N[C@H](C(=O)N[C@@H](CC(N)=O)C(=O)N[C@@H](Cc1c[nH]c2ccccc12)C(=O)N[C@@H](CC(C)C)C(=O)N[C@@H](CC(C)C)C(=O)N[C@@H](C)C(=O)N[C@@H](CCC(N)=O)C(=O)N[C@@H](CCCNC(=N)N)C(=O)NCC(=O)O)C(C)C)[C@@H](C)CC [Compound 171] (H-Y[Aib]EGTFISDYSI[Aib]LDKAK([AEEA-AEEA-γGlu-C18 diacid])QADFVNWLLAQRG-OH) | ≥ 30 |  |  | ≥ 15
CC[C@H](C)[C@H](NC(=O)[C@H](Cc1ccccc1)NC(=O)[C@@H](NC(=O)CNC(=O)[C@H](CCC(=O)O)NC(=O)C(C)(C)NC(=O)[C@H](Cc1ccc(O)cc1)NC)[C@@H](C)O)C(=O)N[C@@H](CO)C(=O)N[C@@H](CC(=O)O)C(=O)N[C@@H](Cc1ccc(O)cc1)C(=O)N[C@@H](CO)C(=O)N[C@H](C(=O)NC(C)(C)C(=O)N[C@@H](CCCCNC(=O)COCCOCCNC(=O)COCCOCCNC(=O)CC[C@H](NC(=O)CC[C@H](NC(=O)CCCCCCCCCCCCCCCC(=O)O)C(=O)O)C(=O)O)C(=O)N[C@@H](CC(=O)O)C(=O)N[C@@H](CCCNC(=N)N)C(=O)NC(C)(C)C(=O)N[C@@H](C)C(=O)N[C@@H](CCC(N)=O)C(=O)NC(C)(C)C(=O)N[C@@H](CC(N)=O)C(=O)N[C@@H](Cc1ccccc1)C(=O)N[C@H](C(=O)N[C@@H](CC(N)=O)C(=O)N[C@@H](Cc1c[nH]c2ccccc12)C(=O)N[C@@H](CC(C)C)C(=O)N[C@@H](CC(C)C)C(=O)N[C@@H](C)C(=O)N[C@@H](CCC(N)=O)C(=O)N[C@@H](CO)C(=O)N1CCC[C@H]1C(=O)N[C@@H](CO)C(=O)N[C@@H](CO)C(=O)NCC(=O)N[C@@H](C)C(=O)N1CCC[C@H]1C(=O)N1CCC[C@H]1C(=O)N1CCC[C@H]1C(=O)N[C@@H](CO)C(N)=O)C(C)C)[C@@H](C)CC [Compound 29] (H-[NMeY][Aib]EGTFISDYSI[Aib]K([AEEA-AEEA-γGlu-γGlu-C17 diacid])DR[Aib]AQ[Aib]NFVNWLLAQSPSSGAPPPS-NH2) |  | ≥ 30 | ≥ 15 | 
CC[C@H](C)[C@H](NC(=O)[C@H](CO)NC(=O)[C@H](Cc1ccc(O)cc1)NC(=O)[C@H](CC(=O)O)NC(=O)[C@H](CO)NC(=O)[C@@H](NC(=O)[C@H](Cc1ccccc1)NC(=O)[C@@H](NC(=O)CNC(=O)[C@H](CCC(=O)O)NC(=O)C(C)(C)NC(=O)[C@H](Cc1ccc(O)cc1)NC)[C@@H](C)O)[C@@H](C)CC)C(=O)N[C@@H](C)C(=O)N[C@@H](CC(C)C)C(=O)N[C@@H](CC(=O)O)C(=O)N[C@@H](CO)C(=O)N[C@@H](CCCCNC(=O)CNC(=O)CNC(=O)CNC(=O)CNC(=O)CNC(=O)CCCCCCCCCCCCCCCCC(=O)O)C(=O)N[C@@H](C)C(=O)N[C@@H](CCC(N)=O)C(=O)NC(C)(C)C(=O)N[C@@H](CC(=O)O)C(=O)N[C@@H](Cc1ccccc1)C(=O)N[C@H](C(=O)N[C@@H](CC(N)=O)C(=O)N[C@@H](Cc1c[nH]c2ccccc12)C(=O)N[C@@H](CC(C)C)C(=O)N[C@@H](CC(C)C)C(=O)N[C@@H](C)C(=O)N[C@@H](CCC(N)=O)C(=O)N[C@@H](CCCCN)C(=O)NCC(=O)O)C(C)C [Compound 78] | ≥ 30 |  |  | ≥ 15
CC[C@H](C)[C@H](NC(=O)[C@H](Cc1ccccc1)NC(=O)[C@@H](NC(=O)CNC(=O)[C@H](CCC(=O)O)NC(=O)C(C)(C)NC(=O)[C@H](Cc1ccc(O)cc1)NC)[C@@H](C)O)C(=O)N[C@@H](CO)C(=O)N[C@@H](CC(=O)O)C(=O)N[C@@H](Cc1ccc(O)cc1)C(=O)N[C@@H](CO)C(=O)N[C@H](C(=O)NC(C)(C)C(=O)N[C@@H](CC(C)C)C(=O)N[C@@H](CC(=O)O)C(=O)N[C@@H](CCCNC(=N)N)C(=O)NC(C)(C)C(=O)N[C@@H](CCCCNC(=O)COCCOCCNC(=O)COCCOCCNC(=O)CC[C@H](NC(=O)CC[C@H](NC(=O)CCCCCCCCCCCCCCCCC(=O)O)C(=O)O)C(=O)O)C(=O)N[C@@H](CCC(N)=O)C(=O)NC(C)(C)C(=O)N[C@@H](CC(N)=O)C(=O)N[C@@H](Cc1ccccc1)C(=O)N[C@H](C(=O)N[C@@H](CC(N)=O)C(=O)N[C@@H](Cc1c[nH]c2ccccc12)C(=O)N[C@@H](CC(C)C)C(=O)N[C@@H](CC(C)C)C(=O)N[C@@H](C)C(=O)N[C@@H](CCC(N)=O)C(=O)N[C@@H](CCCNC(=N)N)C(=O)NCC(=O)O)C(C)C)[C@@H](C)CC [Compound 74] (H-[NMeY][Aib]EGTFISDYSI[Aib]LDR[Aib]K([AEEA-AEEA-γGlu-γGlu-C18 diacid])Q[Aib]NFVNWLLAQRG-OH) | ≥ 30 |  |  | ≥ 15
CC[C@H](C)[C@H](NC(=O)[C@H](CO)NC(=O)[C@H](Cc1ccc(O)cc1)NC(=O)[C@H](CC(=O)O)NC(=O)[C@H](CO)NC(=O)[C@@H](NC(=O)[C@H](Cc1ccccc1)NC(=O)[C@@H](NC(=O)CNC(=O)[C@H](CCC(=O)O)NC(=O)C(C)(C)NC(=O)[C@H](Cc1ccc(O)cc1)NC)[C@@H](C)O)[C@@H](C)CC)C(=O)N[C@@H](C)C(=O)N[C@@H](CC(C)C)C(=O)N[C@@H](CC(=O)O)C(=O)N[C@@H](CCCNC(=N)N)C(=O)NC(C)(C)C(=O)N[C@@H](CCCCNC(=O)COCCOCCNC(=O)COCCOCCNC(=O)CC[C@H](NC(=O)CC[C@H](NC(=O)CCCCCCCCCCCCCCCCCCC(=O)O)C(=O)O)C(=O)O)C(=O)N[C@@H](CCC(N)=O)C(=O)NC(C)(C)C(=O)N[C@@H](CC(N)=O)C(=O)N[C@@H](Cc1ccccc1)C(=O)N[C@H](C(=O)N[C@@H](CC(N)=O)C(=O)N[C@@H](Cc1c[nH]c2ccccc12)C(=O)N[C@@H](CC(C)C)C(=O)N[C@@H](CC(C)C)C(=O)N[C@@H](C)C(=O)N[C@@H](CCC(N)=O)C(=O)N[C@@H](CO)C(=O)N1CCC[C@H]1C(=O)N[C@@H](CO)C(=O)N[C@@H](CO)C(=O)NCC(=O)N[C@@H](C)C(=O)N1CCC[C@H]1C(=O)N1CCC[C@H]1C(=O)N1CCC[C@H]1C(=O)N[C@@H](CO)C(N)=O)C(C)C [Compound 68] (H-[NMeY][Aib]EGTFISDYSIALDR[Aib]K([AEEA-AEEA-γGlu-γGlu-C20 diacid])Q[Aib]NFVNWLLAQSPSSGAPPPS-NH2) |  |  | ≥ 15 | 

— patent US20230143604A1, “QW DOSING OF GIP RECEPTOR AGONIST PEPTIDE COMPOUNDS AND USES THEREOF” (TAKEDA PHARMACEUTICAL COMPANY LIMITED, priority 2020, published 2023)
